ChEMBL document CHEMBL1949671, “Design and synthesis of estrogen receptor degradation inducer based on a protein knockdown strategy” (Bioorg Med Chem Lett, 2012)
Active and inactive are the calls of the source. The calls are words filed in the database; no cut-off is given here.

Tests used:
[1] = molecular target: T1, Baculoviral IAP repeat-containing protein 2/Estrogen receptor (Homo sapiens) (UniProt P03372+Q13490); experiment: Binding affinity to cIAP1/ERalpha in human MCF7 cells assessed as proteasomal degradation of ERalpha at 10 to 30 uM after 6 hrs by Western blot analysis; assay type: cell-based
[2] = molecular target: T1, Baculoviral IAP repeat-containing protein 2/Estrogen receptor (Homo sapiens); experiment: Binding affinity to cIAP1/ERalpha in human MCF7 cells assessed as proteasomal degradation of ERalpha after 6 hrs by Western blot analysis in presence of proteasome inhibitor MG132; assay type: cell-based

Row | Compound | Activity [1] | Activity [2]
1 | CCC(=C(c1ccc(O)cc1)c1ccc(OCCN(C)C(=O)CCCCNC(=O)[C@H](CC(C)C)NC(=O)[C@@H](O)[C@H](N)Cc2ccccc2)cc1)c1ccccc1 | Active | inactive
2 | CCC(=C(c1ccc(O)cc1)c1ccc(OCCN(C)C(=O)CCNC(=O)[C@H](CC(C)C)NC(=O)[C@@H](O)[C@H](N)Cc2ccccc2)cc1)c1ccccc1 | Active | inactive
3 | CCC(=C(c1ccc(O)cc1)c1ccc(OCCN(C)C(=O)CCCCCCNC(=O)[C@H](CC(C)C)NC(=O)[C@@H](O)[C@H](N)Cc2ccccc2)cc1)c1ccccc1 | Active | inactive
